One series concerns HIV-1. Conditions: for influence on the expression level of Ag p24: subfragments containing the GGNK sequence.
Series [1] in a line: Isoelectric point (Ip) of the peptides. It is filed as physicochemical.
Series [2] concerns PE/CA PJ15 cells. The series is described as follows: Cytotoxicity test, Neutral Red Uptake (NRU) method. It is filed as cell-based. Conditions: 50 microM, +24 and +48 hours from administration. As to the method:
FIG. 3 (a, b, c). Cytotoxicity tests according to Neutral Red Uptake (NRU) method, performed on the three peptides: 1932 (SEQ ID NO 1), 2733 (SEQ ID NO 2) and 1413 (SEQ ID NO 3), at the two concentrations of 5 and 50 microM at +24 and +48 hours from administration. Therefore, concentrations near (5 microM) to or markedly higher (50 microM) than those employed for carrying out the ex-vivo and in vitro tests were used. Cells used are a tumour cell line denominated PE/CA PJ15. Positive control (denoted in the legends by ctrl+), used at a sublethal concentration of 10 microM, is a commercial proapoptotic peptide, Catalog #62206 (Anaspec-USA).
Treated cells were subjected to MTT assay at +24 and +48 hours from peptide inoculation. […] After a 3-hour incubation at 38° C., formazan crystals were solubilized with HCl solution in isopropanol (0.04 N, 200 μl) and the stained solution was measured by a microplate reader (Packard Spectracount™, Packard BioScience Company, Meriden U.S.A.) with a 570 nm filter. […] In the MTT citotoxicity test at +24 and +48 hours, averages of the values obtained by photometer reading of the data related to tested peptides were compared. […] From a determination of the amount of Neutral Red retained in the cells exposed thereto (in comparison with the control) the relative toxicity of the chemical substances at issue can be assessed. […]

For series [3], the system named is PE/CA PJ15 cells. The series is described as follows: Cytotoxicity test, MTT method. It is filed as cell-based. Conditions: 15 microM, +48 hours from administration. As to the method: FIG. 4 (a, b, c). Cytotoxicity tests according to the MTT method (see protocols) performed on the three peptides: 1932 (SEQ ID NO 1); 2733 (SEQ ID NO 2) and 1413 (SEQ ID NO 3), and at three concentrations of […] at +24 and +48 hours from administration. There were used concentrations near (5 microM) to, or greater (15, 50 microM) than those used in the ex-vivo and in vitro tests, where average concentration of the three peptides is of about 3.65 microM. Cells used are a tumour cell line denominated PE/CA PJ15. Positive control (denoted in the legends by ctrl+), used at a sublethal concentration of 10 microM, is a commercial proapoptotic peptide, Catalog #62206 (Anaspec-USA).
Treated cells were subjected to MTT assay at +24 and +48 hours from peptide inoculation. […] After a 3-hour incubation at 38° C., formazan crystals were solubilized with HCl solution in isopropanol (0.04 N, 200 μl) and the stained solution was measured by a microplate reader (Packard Spectracount™, Packard BioScience Company, Meriden U.S.A.) with a 570 nm filter. […] In the MTT citotoxicity test at +24 and +48 hours, averages of the values obtained by photometer reading of the data related to tested peptides were compared. […]

In the next series the test system is HIV-1 R5. Particulars: ex vivo.
Another series has as its system HIV. The series is described as follows: Peptide stability, duration of effect on HIV replication in in vitro assays. It is filed as cell-based. The method, then: Current drugs in use for the therapy against HIV infections and AIDS, like e.g. the HAART mixture, are administered in daily doses, whereas the action of the peptides of SEQ ID NO 1, 2, and 3 in in vitro assays highlights a duration of the effect on HIV replication of at least four days.
The effect was verified in two in vitro experimental protocols envisaging: • a treatment of the cells with the virus (adsorption phase), washing, inoculation of the peptide in culture and analysis of viral replication over time; • exposure of the cells to the peptide, adsorption of the cells to the virus, washing, and analysis of viral replication over time.

The next series relates to HIV strain IIIB. The series is described as follows: In vitro exogenous infection of healthy-donor PBMCs with HIV strain IIIB, p24 ELISA.
Another series relates to HIV strain BaL. The series is described as follows: In vitro exogenous infection of healthy-donor PBMCs with HIV strain BaL, p24 ELISA. Conditions: at 12 days, 10 microg/ml, regardless of protocol, FIG. 2.

Where two headings read alike, the source gives them in different places. Ends that are not written are not given here.

This note sets out measurements from patent publication US20140038884A1, “ANTIVIRAL PEPTIDES” (priority 2011, published 2014).

Take “APPGARPLPGPPPPGPPPPGP (listed as Sus sp.) [Peptide 7, Peptide of porcine origin]”: in the series on HIV-1, the “activities A) HIV-1 activation ex vivo, B) inhibitory activity, C)” value is “do not exhibit any of the activities listed at A), B) and C)”. Also, in series [1], the “Ip (isoelectric point)” value is 9.79.
“APPGARPPPGPPPPGPPPPGP (listed as Sus sp.) [Peptide 4, Peptide of porcine origin]”: the “activities A) HIV-1 activation ex vivo, B) inhibitory activity, C)” value in the series with HIV-1 is “do not exhibit any of the activities listed at A), B) and C)”. Also, in series [1], the “Ip (isoelectric point)” value is given as 9.79.
Regarding “APPGARPPPPPPPPADQPQQGP (Sus sp) [Peptide 6, Peptide of porcine origin]”, the “activities A) HIV-1 activation ex vivo, B) inhibitory activity, C)” value in the series on HIV-1 was “do not exhibit any of the activities listed at A), B) and C)”. Besides, the “Ip (isoelectric point)” value in series [1] is reported as 5.88.
“DKPKKKPPPPAGPPPPPPPPPGPPPPGP [peptide 2733]”: the “toxicity with respect to the control (NRU)” value in the series on PE/CA PJ15 cells [2] was “slightly more toxic with respect to the control”.
In the case of “GPPPPGKPQ (listed as Homo sapiens) [Peptide 1e]”, in the series with HIV-1, the “activities A) HIV-1 activation ex vivo, B) inhibitory activity, C)” value was “do not exhibit any of the activities listed at A), B) and C)”. In addition, the “Ip (isoelectric point)” value in series [1] is reported as 8.75.
For the substance “GPPPQGGN (listed as Homo sapiens) [Peptide 1d]”, the “activities A) HIV-1 activation ex vivo, B) inhibitory activity, C)” value with HIV-1 is “do not exhibit any of the activities listed at A), B) and C)”. In addition, the “Ip (isoelectric point)” value in series [1] was found to be 5.52.
For the substance “GPPPQGGNKPQ (listed as Homo sapiens) [Peptide 1b]”, in the series on HIV-1, the “activities A) HIV-1 activation ex vivo, B) inhibitory activity, C)” value was “exhibit none of the activities listed in points A), B) and C)”; the “influence on the expression level of Ag p24” value (“influence” below) is given as “in no way influences the expression level of Ag p24”. Further, the “Ip (isoelectric point)” value in series [1] is recorded as 8.75.
As to “GPPPQGGNKPQGPPPG (listed as Homo sapiens) [Peptide 1c]”, in the series on HIV-1, the “activities A) HIV-1 activation ex vivo, B) inhibitory activity, C)” value was “exhibit none of the activities listed in points A), B) and C)”; the “influence” value was “in no way influences the expression level of Ag p24”. In addition, the “Ip (isoelectric point)” value in series [1] came to 8.75.
For the substance “GPPPQGGNKPQGPPPPG (listed as Homo sapiens) [Peptide 1a]”, in the series with HIV-1, the “activities A) HIV-1 activation ex vivo, B) inhibitory activity, C)” value is “exhibit none of the activities listed in points A), B) and C)”; the “influence” value is “in no way influences the expression level of Ag p24”. Besides, the “Ip (isoelectric point)” value in series [1] was found to be 8.75.
Regarding GPPPQGGNKPQGPPPPGKPQ [peptide 1932], the “toxicity with respect to the control (MTT)” value with PE/CA PJ15 cells [3] is on record as “slightly toxic with respect to the control”. In the series on PE/CA PJ15 cells [2], the “toxicity with respect to the control (NRU)” value is given as “slightly more toxic with respect to the control”.
Regarding “RPPPGPPPPGPPPGP-OH [peptide 1413, RPPPGPPPPGPPPGP]”, the p24 values amounted to 191 picograms/ml in the series on HIV-1 R5 (after 5 days of culture, control cells 76 picograms/ml) and 67 pg/mL in the series with HIV-1 R5 (day 10, control cells 79 picograms/ml). The “duration of the effect on HIV replication” value with HIV is “at least four”. In addition, the “inhibitory activity relative to Con1” value with HIV-1 (versus Con1 of U.S. Pat. No. 5,981,720, no direct comparison) turned out to be 130 times. Besides, the “Ip (isoelectric point)” value in series [1] worked out at 9.75. Moreover, the “inhibition of viral replication” value is on record as “relevant effect of inhibition of viral replication” in the series with HIV strain IIIB (+8 days of culture, 10 μg/ml) and “effective in inhibiting viral replication” with HIV strain BaL. For the same substance, the “virus replication over the time considered (p24 antigen)” value with HIV strain IIIB (peptide 10 microg/ml, FIG. 1) was “almost equal to zero”. In addition, the “persistence of inhibitory effect” value in the series on HIV strain IIIB (until day 12, FIG. 1) is listed as “remained unaltered until day 12”.
As for “RSPFFDL (listed as Sus sp.) [Peptide 5, Peptide of porcine origin]”, the “activities A) HIV-1 activation ex vivo, B) inhibitory activity, C)” value with HIV-1 was “do not exhibit any of the activities listed at A), B) and C)”. Moreover, the “Ip (isoelectric point)” value in series [1] is given as 5.84.
